# Biological target: human ACC2 (Homo sapiens (Human), UniProt O00763)
# Assay: ACC2 assay (spectrophotometric 384 well assay, NADH-linked coupled lactate dehydrogenase/pyruvate kinase)
# Assay type: biochemical
# Conditions: hACC2 construct lacking 128 N-terminal amino acids; 25° C., 340 nm, 15 minutes
# Protocol: Spectrophotometric 384 Well Assay
# Malonyl CoA formation by acetyl CoA carboxylases is stoichometrically linked to the consumption of ATP. ACC2 activity is measured in a NADH-linked kinetic method measuring ADP generated during the ACC reaction using a coupled lactate dehydrogenase/pyruvate kinase reaction.
# For biological testing, a human ACC2 construct which lacks the 128 amino acids at the N-terminus for increased solubility (nt 385-6966 in Genbank entry AJ575592) is cloned. The protein is then expressed in insect cells using a baculoviral expression system. Protein purification is performed by anion exchange.
# All compounds are dissolved in dimethyl sulfoxide (DMSO) to a concentration of 10 mM.
# Assay reactions are then carried out in 384-well plates, with hACC2 in an appropriate dilution and at final assay concentrations (f.c.) of 100 mM Tris (pH 7.5), 10 mM trisodium citrate, 25 mM KHCO3, 10 mM MgCl2, 0.5 mg/ml BSA, 3.75 mM reduced L-glutathione, 15 U/ml lactate dehydrogenase, 0.5 mM phosphoenolpyruvate, 15 U/ml pyruvate kinase, compounds at different concentrations at final DMSO concentrations of 1%.
# The enzymatic reaction is then started by addition of a mixture of NADH, acetyl Coenzyme A (both 200 μM f.c.) and ATP (500 uM f.c.). The decrease of the optical density (slope S) is then determined at 25° C. at a wavelength of 340 nm over 15 minutes in a spectrophotometric reader.
# Each assay microtiter plate contains wells with vehicle instead of compound as controls for the non-inhibited enzyme (100% CTL; ‘HIGH’) and wells without acetyl-CoA as controls for non-specific NADH degradation (0% CTL; ‘LOW’).
# The slope S is used for calculation of % CTL=(S(compound)−S(‘LOW’))/(S(‘HIGH’)—S(‘LOW’))*100. Compounds will give values between 100% CTL (no inhibition) and 0% CTL (complete inhibition).
# For IC50 value determination, the sample slope in the presence of the test compound after subtraction of the low controls (S(compound)−S(‘LOW’)) are used.
# An IC50 value is derived from the compound slopes at different dosages after subtraction of the low controls (S(compound)−S(‘LOW’)) by non-linear regression curve fitting (equation y=(A+((B−A)/(1+((C/x)^D))))).
# human ACC2, sequence (O00763 129-2458): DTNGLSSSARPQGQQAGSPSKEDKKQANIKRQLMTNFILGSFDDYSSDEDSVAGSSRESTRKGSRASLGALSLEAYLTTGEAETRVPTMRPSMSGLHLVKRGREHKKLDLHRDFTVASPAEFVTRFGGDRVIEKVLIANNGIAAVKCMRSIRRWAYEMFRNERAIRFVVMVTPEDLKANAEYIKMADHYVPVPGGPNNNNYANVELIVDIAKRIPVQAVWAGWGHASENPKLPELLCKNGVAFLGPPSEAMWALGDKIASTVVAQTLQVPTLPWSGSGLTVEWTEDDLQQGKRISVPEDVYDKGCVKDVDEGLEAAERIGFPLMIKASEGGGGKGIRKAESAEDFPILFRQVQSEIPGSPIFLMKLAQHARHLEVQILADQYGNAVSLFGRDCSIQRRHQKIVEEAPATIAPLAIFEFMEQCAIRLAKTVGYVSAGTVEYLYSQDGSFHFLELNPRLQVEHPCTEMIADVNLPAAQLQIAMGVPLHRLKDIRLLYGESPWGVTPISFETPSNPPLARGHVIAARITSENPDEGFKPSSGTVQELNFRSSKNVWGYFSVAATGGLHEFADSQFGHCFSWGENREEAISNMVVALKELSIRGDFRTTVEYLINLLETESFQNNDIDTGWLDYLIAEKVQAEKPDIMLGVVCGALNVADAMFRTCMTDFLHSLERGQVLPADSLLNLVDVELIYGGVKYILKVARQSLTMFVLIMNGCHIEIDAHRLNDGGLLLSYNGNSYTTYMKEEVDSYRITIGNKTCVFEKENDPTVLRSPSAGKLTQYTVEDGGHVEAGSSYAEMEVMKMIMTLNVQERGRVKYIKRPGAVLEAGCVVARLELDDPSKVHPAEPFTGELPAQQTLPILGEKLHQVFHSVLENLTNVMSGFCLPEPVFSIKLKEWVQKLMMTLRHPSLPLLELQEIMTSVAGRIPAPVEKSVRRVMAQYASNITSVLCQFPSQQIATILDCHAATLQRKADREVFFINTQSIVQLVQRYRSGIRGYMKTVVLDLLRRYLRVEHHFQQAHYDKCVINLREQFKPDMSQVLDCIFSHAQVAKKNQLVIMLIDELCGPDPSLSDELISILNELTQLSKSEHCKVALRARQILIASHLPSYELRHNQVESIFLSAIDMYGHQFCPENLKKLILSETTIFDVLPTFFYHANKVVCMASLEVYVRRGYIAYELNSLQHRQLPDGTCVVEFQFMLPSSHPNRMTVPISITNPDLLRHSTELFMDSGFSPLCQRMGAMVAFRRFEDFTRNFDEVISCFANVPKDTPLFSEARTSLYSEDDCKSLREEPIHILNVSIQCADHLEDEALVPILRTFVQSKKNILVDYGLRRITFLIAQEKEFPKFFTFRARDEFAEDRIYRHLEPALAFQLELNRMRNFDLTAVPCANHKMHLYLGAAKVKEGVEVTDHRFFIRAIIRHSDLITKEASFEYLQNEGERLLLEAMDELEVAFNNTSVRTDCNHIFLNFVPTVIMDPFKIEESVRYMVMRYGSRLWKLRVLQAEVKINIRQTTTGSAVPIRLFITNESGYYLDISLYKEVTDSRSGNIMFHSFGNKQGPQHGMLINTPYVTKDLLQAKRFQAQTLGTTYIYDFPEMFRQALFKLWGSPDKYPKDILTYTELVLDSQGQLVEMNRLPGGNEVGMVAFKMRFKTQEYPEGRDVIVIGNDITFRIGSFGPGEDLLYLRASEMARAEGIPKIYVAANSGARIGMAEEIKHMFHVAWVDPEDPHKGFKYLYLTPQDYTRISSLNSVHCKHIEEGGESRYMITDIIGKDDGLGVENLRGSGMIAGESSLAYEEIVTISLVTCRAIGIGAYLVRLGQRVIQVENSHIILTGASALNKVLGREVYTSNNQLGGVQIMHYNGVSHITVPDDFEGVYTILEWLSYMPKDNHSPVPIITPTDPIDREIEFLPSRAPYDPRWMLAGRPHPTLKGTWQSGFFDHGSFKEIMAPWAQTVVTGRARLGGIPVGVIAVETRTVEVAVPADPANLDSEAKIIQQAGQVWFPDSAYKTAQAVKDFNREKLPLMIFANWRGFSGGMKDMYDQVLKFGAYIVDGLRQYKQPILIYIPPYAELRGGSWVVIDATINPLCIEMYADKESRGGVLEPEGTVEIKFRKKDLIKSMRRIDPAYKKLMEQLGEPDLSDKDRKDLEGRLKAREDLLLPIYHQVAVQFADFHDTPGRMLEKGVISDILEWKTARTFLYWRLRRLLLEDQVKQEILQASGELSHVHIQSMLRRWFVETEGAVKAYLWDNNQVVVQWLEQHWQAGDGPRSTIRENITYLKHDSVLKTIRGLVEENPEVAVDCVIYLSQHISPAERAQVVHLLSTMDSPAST
row,Structure (SMILES),IC50 [nM]
1,CCCOc1ccc(N2CC(Oc3ccc([C@H](C)NC(C)=O)cc3)C2)c(C)c1 [Example 2.5],170
2,CCCOc1ccc(N2CC(Oc3ccc([C@H](C)NC(C)=O)cc3)C2)c(Cl)c1 [Example 2.6],90
3,CC(=O)N[C@@H](C)c1ccc(OC2CN(c3ccnc(OC(C)C)c3)C2)cc1 [Example 2.7],2060
4,CC(=O)N[C@@H](C)c1ccc(OC2CN(c3ccnc(Oc4ccccc4)c3)C2)cc1 [Example 2.8],4100
5,CC(=O)N[C@@H](C)c1ccc(OC2CN(c3ccnc(Oc4cncnc4)c3)C2)cc1 [Example 2.9],10600
6,CCOc1ccc(N2CC(Oc3ccc([C@H](C)NC(=O)C4CC4)cc3)C2)cc1 [Example 2.10],140
7,CCCOc1ccnc(N2CC(Oc3ccc([C@H](C)NC(C)=O)cc3)C2)c1 [Example 2.12],4500
8,"CC(=O)N[C@@H](C)c1ccc(OC2CN(c3ncc(Br)cn3)C2)cc1 [Example 3.1, (S)—N-(1-(4-(1-(5-bromopyrimidin-2-yl)azetidin-3-yloxy)phenyl)ethyl)acetamide]",210
9,COc1cnc(N2CC(Oc3ccc([C@H](C)NC(C)=O)cc3)C2)nc1 [Example 3.2],1120
10,CCCc1cnc(N2CC(Oc3ccc(C(C)NC(C)=O)cc3)C2)nc1 (stereo not drawn) [Example 3.3],320
11,COc1ccc(-c2cnc(N3CC(Oc4ccc(C(C)NC(C)=O)cc4)C3)nc2)cc1 (stereo not drawn) [Example 3.4],1470
12,C[C@H](NC(=O)C1CC1)c1ccc(OC2CN(c3ncc(C4CC4)cn3)C2)cc1 [Example 3.5],200
13,C[C@H](NC(=O)C1CC1)c1ccc(OC2CN(c3ncc(Br)cn3)C2)cc1 [Example 3.6],3880
14,C[C@H](NC(=O)N(C)C)c1ccc(OC2CN(c3ncc(Br)cn3)C2)cc1 [Example 3.7],470
15,CC(=O)N[C@@H](C)c1ccc(OC2CN(c3nnc(-c4ccccc4)s3)C2)cc1 [Example 3.9],3820
16,CC(=O)N[C@@H](C)c1ccc(OC2CN(c3ccc4ccccc4n3)C2)cc1 [Example 4.2],2040
17,CC(=O)N[C@@H](C)c1ccc(OC2CN(c3nc4ccccc4o3)C2)cc1 [Example 4.3],480
18,CC(=O)N[C@@H](C)c1ccc(OC2CN(c3cc(C(F)(F)F)cc(C)n3)C2)cc1 [Example 4.4],3990
19,CC(=O)N[C@@H](C)c1ccc(OC2CN(c3ccc(C(C)C)cn3)C2)cc1 [Example 4.5],2450

row,Structure (SMILES),IC50 [nM]
1,CC(=O)N[C@@H](C)c1ccc(OC2CN(c3nccc4ccccc34)C2)cc1 [Example 4.6],6230
2,CC(=O)N[C@@H](C)c1ccc(OC2CN(c3cc(Cl)ccn3)C2)cc1 [Example 4.7],3470
3,CC(=O)N[C@@H](C)c1ccc(OC2CN(c3ccc(-c4ccccc4)cn3)C2)cc1 [Example 4.8],240
4,CC(=O)N[C@@H](C)c1ccc(OC2CN(c3ccnc(C(F)(F)F)n3)C2)cc1 [Example 4.9],720
5,CC(=O)N[C@@H](C)c1ccc(OC2CN(c3nccc(C(F)(F)F)c3F)C2)cc1 [Example 4.10],370
6,CCOc1cccc(N2CC(Oc3ccc([C@H](C)NC(C)=O)cc3)C2)n1 [Example 4.11],3620
7,CC(=O)N[C@@H](C)c1ccc(OC2CN(c3ccc(C4(C#N)CC4)cn3)C2)cc1 [Example 4.12],1060
8,CC(=O)N[C@@H](C)c1ccc(OC2CN(c3nc4ccccc4s3)C2)cc1 [Example 4.13],250
9,CC(=O)N[C@@H](C)c1ccc(OC2CN(c3cc(C(F)(F)F)ncn3)C2)cc1 [Example 4.14],6110
10,CC(=O)N[C@@H](C)c1ccc(OC2CN(c3ccc4cc(Cl)ccc4n3)C2)cc1 [Example 4.15],690
11,CC(=O)N[C@@H](C)c1ccc(OC2CN(c3nccc(C(F)(F)F)n3)C2)cc1 [Example 4.16],470
12,CC(=O)N[C@@H](C)c1ccc(OC2CN(c3ccc(Br)cn3)C2)cc1 [Example 4.17],290
13,CC(=O)N[C@@H](C)c1ccc(OC2CN(c3cc(Br)ccn3)C2)cc1 [Example 4.18],1800
14,CC(=O)N[C@@H](C)c1ccc(OC2CN(c3ccc(C(F)(F)F)cn3)C2)cc1 [Example 4.19],200
15,CC(=O)N[C@@H](C)c1ccc(OC2CN(c3cc(C(F)(F)F)ccn3)C2)cc1 [Example 4.20],770
16,CC(=O)N[C@@H](C)c1ccc(OC2CN(c3cccc(C(F)(F)F)n3)C2)cc1 [Example 4.21],410
17,COc1ccc2nc(N3CC(Oc4ccc([C@H](C)NC(C)=O)cc4)C3)ccc2c1 [Example 4.22],450
18,CC(=O)N[C@@H](C)c1ccc(OC2CN(c3ncc4nc(-c5ccccc5)oc4n3)C2)cc1 [Example 4.23],1180
19,CC(=O)N[C@@H](C)c1ccc(OC2CN(c3ncc(Cl)cn3)C2)cc1 [Example 4.24],390

row,Structure (SMILES),IC50 [nM]
1,CC(=O)N[C@@H](C)c1ccc(OC2CN(c3noc4ccccc34)C2)cc1 [Example 4.25],750
2,CC(=O)N[C@@H](C)c1ccc(OC2CN(c3ncc4nc(-c5ccsc5)oc4n3)C2)cc1 [Example 4.26],13300
3,CC(=O)N[C@@H](C)c1ccc(OC2CN(c3ncc(C(C)(C)C)cn3)C2)cc1 [Example 4.27],570
4,CC(=O)N[C@@H](C)c1ccc(OC2CN(c3cnc4ccccc4n3)C2)cc1 [Example 4.28],360
5,CC(=O)N[C@@H](C)c1ccc(OC2CN(c3ccnc(C(F)(F)F)c3)C2)cc1 [Example 4.29],1170
6,CC(=O)N[C@@H](C)c1ccc(OC2CN(c3ncc(C(F)(F)F)cc3F)C2)cc1 [Example 4.31],190
7,CC(=O)N[C@@H](C)c1ccc(OC2CN(c3ccc(Cl)c(C(F)(F)F)n3)C2)cc1 [Example 4.32],100
8,CCOC(=O)c1cnc(N2CC(Oc3ccc([C@H](C)NC(C)=O)cc3)C2)nc1C(F)(F)F [Example 4.33],1730
9,CC(=O)N[C@@H](C)c1ccc(OC2CN(c3ncc(OC(C)C)cn3)C2)cc1 [Example 4.34],940
10,CC(=O)N[C@@H](C)c1ccc(OC2CN(c3ccc(Br)c(C#N)n3)C2)cc1 [Example 4.35],1110
11,CCOC(=O)c1cc(C#N)c(N2CC(Oc3ccc([C@H](C)NC(C)=O)cc3)C2)nc1C(F)(F)F [Example 4.36],1140
12,CC(=O)N[C@@H](C)c1ccc(OC2CN(c3ccc(F)c(C(F)(F)F)n3)C2)cc1 [Example 4.37],290
13,CC(=O)N[C@@H](C)c1ccc(OC2CN(c3nc4ccccc4nc3C)C2)cc1 [Example 4.38],3050
14,CC(=O)N[C@@H](C)c1ccc(OC2CN(c3cncc(C(F)(F)F)c3)C2)cc1 [Example 4.40],1050
15,CC(=O)N[C@@H](C)c1ccc(OC2CN(c3nc(-c4ccccc4)no3)C2)cc1 [Example 4.41],3480
16,CC(=O)N[C@@H](C)c1ccc(OC2CN(c3ncc(OCC4CC4(F)F)cn3)C2)cc1 (stereo partly drawn) [Example 4.42],530
17,CC(=O)N[C@@H](C)c1ccc(OC2CN(c3nc(C(F)(F)F)ccc3F)C2)cc1 [Example 4.43],530
18,"CC(=O)N[C@@H](C)c1ccc(OC2CN(c3ncc(C4CC4)cn3)C2)cc1 [Example 5.1, (S)—N-(1-(4-(1-(5-Cyclopropylpyrimidin-2-yl)azetidin-3-yloxy)phenyl)ethyl)acetamide]",170
19,CC(=O)N[C@@H](C)c1ccc(OC2CN(c3ncc(C)cn3)C2)cc1 [Example 5.2],2180

# — US8530460B2, “Azetidine derivatives” (Boehringer Ingelheim International GmbH, priority 2011, dated 2013)
